The values that follow come from patent US12661338B2, “Heterocyclic compounds as modulators of beta-catenin / TCF4 interaction” (AGENCY FOR SCIENCE, TECHNOLOGY AND RESEARCH, priority 2019, dated 2026).

Bounds are passed on as bounds.

Test [1] relates to Myc reporter (Luc)-HCT116 cells. Description: Myc signalling reporter dose response. It is filed as cell-based. The conditions noted are these: Homo sapiens, HCT-116, 24 hr. The protocol:
The Myc reporter (Luc)-HCT116 cells were seeded as 25,000 cells in 100 μL assay medium per well in 96-well plates (Corning cat. #3903, Falcon cat. #353072). The assay medium consists of the growth medium without G-418. The next day, 4-fold dilutions of the compounds in DMSO were added to the cells at a final concentration of 1% DMSO. After 24 hr incubation, the viability of the cells was determined with PrestoBlue cell viability reagent while the luciferase reporter activity was determined with Steady-Glo luciferase reagent.
(§1) The average signal from DMSO treated wells was calculated for each plate, and the signal from each treatment well was normalized against the average DMSO signal from the respective plate. The normalized values were plotted against the concentrations tested using GraphPad Prism 5, and the EC50 values were determined through either three- or four-parameter nonlinear regression.

Test [2] deals with Hippo pathway TEAD reporter cells. Description: Hippo signalling TEAD reporter dose response. It is filed as cell-based. The conditions noted are these: 24 hr, inhibition of the Hippo pathway, read-out: IC50 Hippo. The protocol: The Hippo TEAD reporter cells were seeded as 100,000 cells in 100 μL assay medium per well in 96-well plates (Corning cat. #3903, Falcon cat. #353072). The assay medium consists of the growth medium without G-418. The next day, 5-fold dilutions of the compounds in DMSO were added to the cells at a final concentration of 1% DMSO. After 24 hr incubation, the viability of the cells was determined with CCK-8 cell viability reagent while the luciferase reporter activity was determined with Steady-Glo luciferase reagent.
as §1

The test system of test [3] is STF3A cells. Description: Viability (toxicity) of STF3A reporter cells, CCK-8. It is filed as cell-based. The conditions noted are these: Table 3; STF3A reporter cell line. The protocol: The Wnt STF3A reporter cells were seeded as 20,000 cells in 100 μL culture medium per well in 96-well plates (Corning cat. #3903, Falcon cat. #353072). The next day, 5-fold dilutions of the compounds in DMSO were added to the cells at a final concentration of 1% DMSO. After 24 hr incubation, the viability of the cells was determined with cell counting kit-8 (CCK-8, Dojindo cat. #CK04) cell viability reagent according to the manufacturer's protocol while the TOPFlash reporter activity was determined with Steady-Glo luciferase reagent.
as §1

The target in test [4] is T1, β-cat / GST-TCF4 N-terminal domain interaction (Homo sapiens, UniProt P35222).
T1 construct: His-tagged human β-cat (134-668); made in house; host or cells: E. coli BL21(DE3)
Nature of the test: SPR inhibition of β-cat-TCF4 interaction. The conditions noted are these: SPR competition, 50 nM β-cat pre-incubated 15 min, n=2; read-out: IC50 inhibition of interaction between β-cat and TCF4. It is filed as binding. The protocol:
BL21(DE3) cells harboring pET-28 β-cat expression vector of His-tagged human β-cat (134-668) were cultured at 37° C. until OD600=0.6-0.8. The cells were then induced with 500 μM isopropyl-β-D-thiogalactopyranoside (IPTG) for 6-8 hr at 23° C. Cells were lysed by sonication in lysis buffer containing 20 mM Tris (pH 8.8), 250 mM NaCl, 2 mM DTT, 5% glycerol, 0.1% Triton X-100, and cOmplete protease inhibitor cocktail (EDTA free, Roche cat. #11873580001). The lysate was incubated with Ni-NTA agarose beads (Qiagen cat. #30210) at 4° C. for 1 hr, and the beads were then washed with lysis buffer containing 20 mM imidazole. Bound protein was eluted with buffer containing 20 mM Tris (pH 8.8), 250 mM NaCl, 0.5 mM tris(2-carboxyethyl)phosphine (TCEP), 5% glycerol, and 250 mM imidazole.
GST-tagged TCF4 N-terminal domain was expressed similarly in BL21(DE3) cells, induced for 2-4 hr at 23° C. with IPTG, and purified from glutathione agarose beads (Pierce cat. #16100) using buffer containing 20 mM Tris (pH 8.8), 250 mM NaCl, 0.5 mM TCEP, 5% glycerol, and 10 mM reduced glutathione.
GST-tag TCF4 N-terminal domain (31 kDa, >90% pure based on SDS-PAGE) was immobilized on a CM5 series S sensor chip using amine-coupling chemistry. […]

Test [5] relates to β-cat-ECAD interaction. Nature of the test: Co-immunoprecipitation of β-cat and ECAD in HCT116 cells. It is filed as cell-based. The conditions noted are these: 18 hr. As to the method: HCT116 cells were treated for 18 hr with compounds at the indicated concentrations. Cells were lysed on ice in lysis buffer containing 20 mM HEPES, pH 7.5, 137 mM NaCl, 1.5 mM MgCl2, 1 mM EGTA, 1 mM dithiothreitol (DTT), 1% Triton X-100, 10% glycerol, cOmplete protease inhibitor cocktail (Roche cat. #11697498001), and 1 mM Na3VO4. Each sample of cleared protein lysate was incubated overnight at 4° C. with 4 μg anti-β-cat antibody (Sigma cat. #C7207) followed by 1 hr incubation with a 50 μL slurry of Dynabeads Protein G (Invitrogen cat. #10004D) at 4° C. The beads were then washed three times with lysis buffer at 4° C., and the bound protein was eluted by heating the beads with 30 μL (per sample) of SDS sample buffer at 95° C. for 7 min. protein was resolved by SDS-PAGE and blotted onto PVDF membrane (Millipore cat. #IPVH00010). Primary antibodies were incubated overnight at 4° C. and the blots were detected with either IRDye 800CW goat anti-rabbit antibody (LI-COR cat. #926-32211) or IRDye 680RD goat anti-mouse antibody (LI-COR cat. #926-68070) at 1:5000 dilution. Signals were visualized with the LI-COR Odyssey CLx imaging system and bands were quantified using LI-COR Image Studio data analysis software. […]

In test [6] the test system is CRC2255. Description: Viability of primary patient-derived colorectal cancer cell line. It is filed as cell-based.
In test [7] the test system is CRC2440. Described as above. It is filed as cell-based.

T1 sequence (P35222 134-668): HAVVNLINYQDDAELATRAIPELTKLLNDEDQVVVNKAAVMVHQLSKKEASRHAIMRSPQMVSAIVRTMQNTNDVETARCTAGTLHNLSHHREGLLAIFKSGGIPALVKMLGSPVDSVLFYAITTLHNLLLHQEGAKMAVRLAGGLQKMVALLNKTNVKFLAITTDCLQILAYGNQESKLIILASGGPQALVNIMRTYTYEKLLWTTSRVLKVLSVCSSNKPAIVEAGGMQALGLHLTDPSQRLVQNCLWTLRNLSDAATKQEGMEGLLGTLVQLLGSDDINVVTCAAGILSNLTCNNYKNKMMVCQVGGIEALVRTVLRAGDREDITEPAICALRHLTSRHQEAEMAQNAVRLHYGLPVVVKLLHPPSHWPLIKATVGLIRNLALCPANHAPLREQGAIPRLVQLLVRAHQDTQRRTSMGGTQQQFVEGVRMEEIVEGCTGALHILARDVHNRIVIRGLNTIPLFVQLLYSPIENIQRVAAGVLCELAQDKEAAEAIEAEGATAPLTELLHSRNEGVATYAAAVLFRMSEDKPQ

On to `CCc1ccc(OCc2nnc(SC3CCCC3=O)n2C(C)c2ccccc2)cc1` (stereo not shown) [GB1874], for which the IC50 – broadly, the concentration that inhibits the measured activity by half – in test [1] was 32 µM; in test [2], above 100 µM; in test [3], 64 µM; in test [4], 25 ± 8 µM. In test [5], the “β-cat-ECAD interaction (co-IP)” value is listed as “minimal effect on the β-cat-ECAD interaction”. Also, the results for the concentration for a half-maximal effect (EC50) in test [6] and in test [7] were 20 µM and 16 µM, respectively.
